{
  "source": "patent EP2805705B1",
  "about": "“Packaging with one or more administration units comprising a sodium salt of (R)-3-[6-amino-pyridin-3-yl]-2-(1-cyclohexyl-1 H-imidazol-4-yl)-propionic acid” (IP Gesellschaft für Management mbH, priority 2013, dated 2014)",
  "key": {"[1]": {"assay": "Chiral stability on storage as a solid at 40 °C and 75 % RH (chiral HPLC)", "type": "physicochemical", "description": "Example 8: Chiral stability: Representative samples of the crystalline sodium salt of (R)-3-[6-amino-pyridin-3-yl]-2-(1-cyclohexyl-1 H-imidazol-4-yl)-propionic acid sodium salt dihydrate as prepared in Example 3 were stored as a solid under the conditions (A) and (B): (A) 40 °C and 75 % RH 2 weeks; (B) 40 °C and 75 % RH 4 weeks: Results are shown in the following table:\nUnder the storage conditions the samples remain stable. […] The purity was determined by chiral HPLC on a HPLC system containing a Quaternary HPLC pump (e.g. HP 1100), an auto sampler, an UV absorbance detector (e.g. DAD Agilent Technologies or other adequate HPLC-System) and a computer data acquisition system with suitable software (e.g. Dionex-Chromeleon). A Zorbax SB_CN (4.6 x 100 mm, 3.5 µlτ ? ), column was used as stationary phase and two mobile phases A (975 mL water, 25 mL methanol, 1 mL perchloric acid) and B (975 mL methanol, 25 mL water) were used as mobile phases. The flow rate was set to a value of 1.0 mL/minute and the oven temperature was set to 15°C. Detection was performed by absorbance of the compounds at 236 nm (UV) (bandwidth: 4 nm) and reference wavelength was set to 450 nm (bandwidth: 50 nm). Typical total run times were in the range of about 10 minutes. For sample preparation 20 mg of the substance were accurately weighed into a 10 ml volumetric flask and dissolved and diluted to volume with solvent (acetonitrile/water 90:10 VN). Afterwards 1 ml of this solution was transferred to a 10 mL volumetric flask and then diluted to volume with water. For the HPLC analysis 5 µl of the sample were injected into the system. Gradient used: 0 min (time elapsed) 0% mobile phase B, 1 min 0% mobile phase B, 4 min 53% mobile phase B, 6 min 95% mobile phase B, 7 min 95% mobile phase B, 7.5 min 0% mobile phase B and after 10 min 0% mobile phase B. Enanatiomeric excess was determined by chiral HPLC on a HPLC system containing a Quaternary HPLC pump (e.g. HP 1100), an auto sampler, an UV absorbance detector (e.g. DAD Agilent Technologies or other adequate HPLC-System) and a computer data acquisition system with suitable software (e.g. Dionex-Chromeleon). A Chirobiotic R, Supelco (Astec) (4.6 x 250mm; 5µηη) column was used as stationary phase and a solution of 800 mL water, 1200 mL acetonitrile and 1.0 g ammoniumacetate was used as mobile phase. The flow rate was set to a value of 1.5 mL/minute and the oven temperature was set to 45°C. Detection was performed by absorbance of the compounds at 236 nm (UV) (bandwidth: 8 nm) and reference wavelength was set to 450 nm (bandwidth: 50 nm). Typical total run times were in the range of about 15 minutes. For sample preparation 50 mg of the substance were accurately weighed into a 10 mL volumetric flask and dissolved and diluted to volume with solvent (acetonitrile/water 50:50). For the HPLC analysis 5 µí of the sample were injected into the system. Gradient used: Isograt (15 minutes 100% mobile phase A).\nExample 10: Chiral stability; Comparison Experiment: (R)-3-[6-amino-pyridin-3-yl]-2-(1-cyclohexyl-1 H-imidazol-4-yl)-propionic acid as prepared in Example 1 was used for the measurement. Representative samples of the compound (R)-3-[6-amino-pyridin-3-yl]-2-(1-cyclohexyl-1 H-imidazol-4-yl)-propionic acid as prepared in Example 1 were stored as a solid under the conditions (A) and (B) as defined in Example 8."}, "[2]": {"assay": "Dynamic vapor sorption (DVS), SPS11-10µ, one cycle at 25 °C", "type": "physicochemical", "conditions": "DVS isotherm at 25 °C", "description": "(§1) Example 7: Dynamic vapor sorption (DVS) of (R)-3-[6-amino-pyridin-3-yl]-2-(1-cyclohexyl-1 H-imidazol-4-yl)-propionic acid sodium salt monohydrate: Moisture sorption/desorption isotherms were recorded on a SPS11-10µ from Projekt Messtechnik (Ulm, Germany). One cycle was run at 25 °C, in which the sample was first stepwise decreased to 0% RH and then the relative humidity was stepwise increased from 0 to 95% and the weight of the sample was measured. Typical total measurement times for both cycles were about 20 to 30 hours. The measured data for the (R)-3-[6-amino-pyridin-3-yl]-2-(1-cyclohexyl-1 H-imidazol-4-yl)-propionic acid sodium salt monohydrate as prepared in Examples 2 or 3 are shown in the following table: DVS Isotherm at 25 °C:\nExample 12: DVS, Comparison Experiment: (R)-3-[6-amino-pyridin-3-yl]-2-(1-cyclohexyl-1 H-imidazol-4-yl)-propionic acid as prepared in Example 1 was used for the measurement. The measurement was performed as disclosed in Example 7 with (R)-3-[6-amino-pyridin-3-yl]-2-(1-cyclohexyl-1 H-imidazol-4-yl)-propionic acid (free acid, amorphous) and the received data are shown in the following table: DVS Isotherm at 25 °C\nas §1, with “(DVS):” for “(DVS) of (R)-3-[6-amino-pyridin-3-yl]-2-(1-cyclohexyl-1 H-imidazol-4-yl)-propionic acid sodium salt monohydrate:”, “Room humidity (RH)” for “RH”, “dihydrate” for “monohydrate”, “Example” for “Examples 2 or”, “isotherm” for “Isotherm”, “25°C:” for “25 °C:”\nExample 9: DVS, Comparison Experiment: (R)-3-[6-amino-pyridin-3-yl]-2-(1-cyclohexyl-1 H-imidazol-4-yl)-propionic acid as prepared in Example 1 was used for the measurement. The measurement was performed as disclosed in Example 7 with (R)-3-[6-amino-pyridin-3-yl]-2-(1-cyclohexyl-1 H-imidazol-4-yl)-propionic acid (free acid, amorphous) and the received data are shown in the following table: DVS Isotherm at 25 °C"}, "[3]": {"type": "physicochemical", "conditions": "At 90% RH, 25°C", "description": "Said crystal Form I according to the invention (samples obtained according to the process of scheme 1) was characterized by several physical methods such as X-ray Powder Diffraction, Differential Scanning Calorimetry, Thenno-Gravimetric Analysis, Water-Activity isotherm measurement, as shown below. X-Ray Powder Diffraction (XRPD): XRPD experiments are carried out on a Braker AXS D8 powder diffractometer using the Bragg-Brentano parafocusing geometry. A thin layer of the product is deposited on a single-crystal silicon wafer, cut out according to Si (510) crystallographic orientation that, by systematic extinction, impedes any Bragg reflection. […] Diagrams are recorded in the following conditions: a 1.5 to 40.0° scan in angle 20, 10 and 100 seconds counting time per degree in 20, according to the amount of powder to be analyzed, and ambient conditions of pressure, temperature and relative humidity. […] Between 1.5 and 5 mg of the product to be analyzed is placed in a semi-open aluminum sample pan. An endo thermic peak is recorded (onset around 104°C). […] A controlled relative humidity is generated by mixing different proportions of dry and water saturated carrier gas streams (monitored by mass flow conti llers). […] From the complete moisture sorption and desorption profile an isotherm is calculated using the DVS Advanced Analysis Suite v3.6. […]"}, "[4]": {"conditions": "Storage condition (A) 40 °C and 75 % RH 2 weeks, stored as a solid"}},
  "data": [
    {"smiles": "Nc1ccc(C[C@@H](C(=O)[O-])c2cn(C3CCCCC3)cn2)cn1.O.O.[Na+]", "note": "[(R)-3-[6-amino-pyridin-3-yl]-2-(1-cyclohexyl-1 H-imidazol-4-yl)-propionic acid sodium salt dihydrate]", "values": [
      {"measurement": "Enantiomeric excess", "setting": "[1]; [4]", "value": 99.6, "unit": "%"},
      {"measurement": "Enantiomeric excess", "setting": "[1]; Storage condition (B) 40 °C and 75 % RH 4 weeks, stored as a solid", "value": 99.5, "unit": "%"},
      {"measurement": "Enantiomeric excess", "setting": "[1]; at the beginning", "value": 99.6, "unit": "%"},
      {"measurement": "Change In Mass (%) Desorption", "setting": "[2]; Target RH 0.3 %", "value": -0.1, "unit": "%"},
      {"measurement": "Change In Mass (%) Desorption", "setting": "[2]; Target RH 10.0 %", "value": 0.0, "unit": "%"},
      {"measurement": "Change In Mass (%) Sorption", "setting": "[2]; Target RH 10.0 %", "value": 0.0, "unit": "%"},
      {"measurement": "Change In Mass (%) Sorption", "setting": "[2]; Target RH 20.0 %", "value": 0.0, "unit": "%"},
      {"measurement": "Change In Mass (%) Desorption", "setting": "[2]; Target RH 20.1 %", "value": 0.0, "unit": "%"},
      {"measurement": "Change In Mass (%) Sorption", "setting": "[2]; Target RH 30.0 %", "value": 0.0, "unit": "%"},
      {"measurement": "Change In Mass (%) Desorption", "setting": "[2]; Target RH 30.1 %", "value": 0.0, "unit": "%"},
      {"measurement": "Change In Mass (%) Sorption", "setting": "[2]; Target RH 40.0 %", "value": 0.0, "unit": "%"},
      {"measurement": "Change In Mass (%) Sorption", "setting": "[2]; Target RH 50.0 %", "value": 0.0, "unit": "%"},
      {"measurement": "Change In Mass (%) Sorption", "setting": "[2]; Target RH 60.0 %", "value": 0.1, "unit": "%"},
      {"measurement": "Change In Mass (%) Sorption", "setting": "[2]; Target RH 70.1 %", "value": 0.71, "unit": "%"},
      {"measurement": "Change In Mass (%) Sorption", "setting": "[2]; Target RH 75.0 %", "value": 0.8, "unit": "%"},
      {"measurement": "Change In Mass (%) Sorption", "setting": "[2]; Target RH 80.0 %", "value": 2.1, "unit": "%"},
      {"measurement": "Change In Mass (%) Sorption", "setting": "[2]; Target RH 85.1 %", "value": 2.7, "unit": "%"},
      {"measurement": "Change In Mass (%) Sorption", "setting": "[2]; Target RH 90.1 %", "value": 18.8, "unit": "%"},
      {"measurement": "Change In Mass (%) Sorption", "setting": "[2]; Target RH 94.9 %", "value": 51.8, "unit": "%"}
    ]},
    {"smiles": "Nc1ccc(C[C@@H](C(=O)O)c2cn(C3CCCCC3)cn2)cn1", "note": "[(R)-3-[6-amino-pyridin-3-yl]-2-(1-cyclohexyl-1 H-imidazol-4-yl)-propionic acid]", "values": [
      {"measurement": "Enantiomeric excess", "setting": "[1]; [4]", "value": 94.9, "unit": "%"},
      {"measurement": "Enantiomeric excess", "setting": "[1]; at the beginning", "value": 98.2, "unit": "%"},
      {"measurement": "Change In Mass (%) Desorption", "setting": "[2]; Target RH 0.4 %", "value": -1.6, "unit": "%"},
      {"measurement": "Change In Mass (%) Sorption", "setting": "[2]; Target RH 10.0 %", "value": -0.5, "unit": "%"},
      {"measurement": "Change In Mass (%) Desorption", "setting": "[2]; Target RH 10.1 %", "value": 0.3, "unit": "%"},
      {"measurement": "Change In Mass (%) Desorption", "setting": "[2]; Target RH 20.0 %", "value": 1.1, "unit": "%"},
      {"measurement": "Change In Mass (%) Sorption", "setting": "[2]; Target RH 20.0 %", "value": 0.5, "unit": "%"},
      {"measurement": "Change In Mass (%) Sorption", "setting": "[2]; Target RH 30.0 %", "value": 1.9, "unit": "%"},
      {"measurement": "Change In Mass (%) Desorption", "setting": "[2]; Target RH 30.1 %", "value": 1.7, "unit": "%"},
      {"measurement": "Change In Mass (%) Sorption", "setting": "[2]; Target RH 40.1 %", "value": 3.9, "unit": "%"},
      {"measurement": "Change In Mass (%) Sorption", "setting": "[2]; Target RH 50.0 %", "value": 6.6, "unit": "%"},
      {"measurement": "Change In Mass (%) Sorption", "setting": "[2]; Target RH 60.1 %", "value": 9.6, "unit": "%"},
      {"measurement": "Change In Mass (%) Sorption", "setting": "[2]; Target RH 70.0 %", "value": 13.4, "unit": "%"},
      {"measurement": "Change In Mass (%) Sorption", "setting": "[2]; Target RH 75.0 %", "value": 15.0, "unit": "%"},
      {"measurement": "Change In Mass (%) Sorption", "setting": "[2]; Target RH 80.1 %", "value": 16.9, "unit": "%"},
      {"measurement": "Change In Mass (%) Sorption", "setting": "[2]; Target RH 85.1 %", "value": 20.1, "unit": "%"},
      {"measurement": "Change In Mass (%) Sorption", "setting": "[2]; Target RH 89.9 %", "value": 25.1, "unit": "%"},
      {"measurement": "Change In Mass (%) Sorption", "setting": "[2]; Target RH 95.0 %", "value": 32.3, "unit": "%"}
    ]},
    {"smiles": "COc1ccc(/C=C\\c2cc(OC)c(OC)c(OC)c2)cc1NC(=O)[C@@H](N)CO", "note": "[crystal Form I, (2S)-2-amino-3-hydroxy-N-[2-methoxy-2-[(1Z)-2-(3,4,5-trimethoxyphenyl)ethenyl]phenyl] propanamide]", "values": [
      {"measurement": "total water uptake", "setting": "[3]", "value": "less than 0.15 % (w/w)"}
    ]}
  ]
}
